# Reference: patent US20070149547A1, “Bipyridyl amides as modulators of metabotropic glutamate receptor-5” (priority 2004, published 2007)
# Target: T1, hmGluR5a receptor (Homo sapiens, UniProt P41594)
# T1 construct: expressed in transfected cells; host or cells: HEK293 cells (hm5a cell line)
# Test: Calcium flux assay (fura-2, glutamate-evoked [Ca2+]i)
# Type: cell-based
# Conditions: assay not given; follows the calcium flux / PI statement; read-out: IC50 (mGluR5 inhibitory activity)
# Procedure: The compounds of this invention were tested against the hmGluR5a receptor stably expressed in mouse fibroblast Ltk^− cells (the hmGluR5a/L38-20 cell line) and activity was detected by changes in [Ca^++]i, measured using the fluorescent Ca^++-sensitive dye, fura-2. InsP assays were performed in mouse fibroblast Ltk^− cells (LM5a cell line) stably expressing hmGluR5a. The assays described in International Patent Publication WO 0116121 can be used.
# The activity of compounds was examined against the hmGluR5a receptor stably expressed in human embryonic kidney HEK293 cells (the hmGluR5a cell line designated hm5a). See generally Daggett et al., Neuropharmacology 34:871-886 (1995). Receptor activity was detected by changes in intracellular calcium ([Ca^2+]i) measured using the fluorescent calcium-sensitive dye, fura-2. The hm5a cells were plated onto 96-well plates, and loaded with 3 µM fura-2 for 1 h. Unincorporated dye was washed from the cells, and the cell plate was transferred to a 96-channel fluorimeter (SIBIA-SAIC, La Jolla, Calif.) which is integrated into a fully automated plate handling and liquid delivery system. Cells were excited at 350 and 385 nm with a xenon source combined with optical filters. Emitted light was collected from the sample through a dichroic mirror and a 510 nm interference filter and directed into a cooled CCD camera (Princeton Instruments). Image pairs were captured approximately every 1 s, and ratio images were generated after background subtraction. After a basal reading of 20 s, an EC80 concentration of glutamate (10 µM) was added to the well, and the response evaluated for another 60 s. The glutamate-evoked increase in [Ca′]i in the presence of the screening compound was compared to the response of glutamate alone (the positive control).
# T1 sequence (P41594 21-1180 isoform P41594-2 limits assumed): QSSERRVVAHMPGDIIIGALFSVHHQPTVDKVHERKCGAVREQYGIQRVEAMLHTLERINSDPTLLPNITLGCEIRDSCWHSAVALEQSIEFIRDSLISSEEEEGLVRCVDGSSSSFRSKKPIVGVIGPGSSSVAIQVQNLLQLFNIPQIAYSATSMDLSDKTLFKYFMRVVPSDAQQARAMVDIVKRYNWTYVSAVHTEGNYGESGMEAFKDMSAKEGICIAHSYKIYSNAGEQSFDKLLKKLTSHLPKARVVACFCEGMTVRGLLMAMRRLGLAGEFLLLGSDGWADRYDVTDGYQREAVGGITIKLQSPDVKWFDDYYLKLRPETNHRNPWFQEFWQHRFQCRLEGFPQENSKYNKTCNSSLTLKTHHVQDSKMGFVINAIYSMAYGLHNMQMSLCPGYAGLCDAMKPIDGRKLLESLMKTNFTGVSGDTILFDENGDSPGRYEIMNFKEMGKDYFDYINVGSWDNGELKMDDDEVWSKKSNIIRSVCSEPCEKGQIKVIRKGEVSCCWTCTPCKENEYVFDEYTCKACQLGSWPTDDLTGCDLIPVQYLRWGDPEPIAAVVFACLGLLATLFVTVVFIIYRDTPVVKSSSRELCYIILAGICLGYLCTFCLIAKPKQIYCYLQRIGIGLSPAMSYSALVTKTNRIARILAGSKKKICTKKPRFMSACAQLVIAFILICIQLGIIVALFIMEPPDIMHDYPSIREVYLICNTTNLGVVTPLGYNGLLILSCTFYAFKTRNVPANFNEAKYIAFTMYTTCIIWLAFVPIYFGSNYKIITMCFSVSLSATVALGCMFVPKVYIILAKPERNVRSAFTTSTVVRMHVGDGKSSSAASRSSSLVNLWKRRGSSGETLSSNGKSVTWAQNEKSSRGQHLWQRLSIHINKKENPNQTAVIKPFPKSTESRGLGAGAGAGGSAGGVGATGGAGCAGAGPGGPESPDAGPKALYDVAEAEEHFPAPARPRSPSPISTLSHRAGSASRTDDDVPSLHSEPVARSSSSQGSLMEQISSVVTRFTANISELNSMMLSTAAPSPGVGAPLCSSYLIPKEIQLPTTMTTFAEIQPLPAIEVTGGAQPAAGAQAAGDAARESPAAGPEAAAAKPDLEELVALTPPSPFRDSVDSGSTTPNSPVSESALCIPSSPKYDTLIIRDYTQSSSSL
row,IC50,SMILES
1,500 nM,"N#Cc1cccc(NC(=O)c2nc(Cl)cnc2N)n1 [Example 29, 3-Amino-6-chloro-N-(6-cyanopyridin-2-yl)pyrazine-2-carboxamide]"
2,3000 nM,"Cc1cccc(C(=O)Nc2cccc(-c3ccccc3)n2)n1 [Example 58, 6-Methyl-N-(6-phenylpyridin-2-yl)pyridine-2-carboxamide]"
3,1300 nM,"Nc1nc(C(F)(F)F)cnc1C(=O)Nc1ccccn1 [Example 38, 3-Amino-N-pyridin-2-yl-5-(trifluoromethyl)pyrazine-2-carboxamide]"
